Reference: patent publication US20090106856A1, “Selection System for Wheat” (BASF PLANT SCIENCE GMBH, priority 2005, published 2009)

Experiments:
wheat callus = test: Killing curve: callus growth and regeneration under constant selection pressure; type: cell-based, Triticum aestivum
Description: To define the sensitivity of wheat tissues during transformation when D-Serine and D-Alanine are present as selection agents regeneration experiments with immature embryos were designed. Immature embryos were immersed in PAWinf medium and subjected to all steps of callus induction, callus maintaining and regeneration in transformation protocol above.
Sensitivity of callus tissue under constant selection pressure were evaluated using range of concentrations: 0.5 mM, 1 mM, 3 mM, 5 mM, 10 mM, 25 mM, 50 mM. Experiments were performed in triplicates. Percentage of embryos forming embryos-genic callus was scored on PAW-4 regeneration medium. At the end of shoots elongation regeneration capacity of the calluses was scored as calluses regenerating shoots and number of shoots per callus.
Range of the tested concentrations 0.5-50 mM D-ser and D-ala are evaluated in replicating regeneration experiments. The effect of selective compounds is estimated during callus growth and shoots formation following transformation procedure on medium with D-serine and D-alanine (Table 4).

[1] = tested on: control seedlings (wheat); test: Spraying of seedlings with D-serine; type: in vivo, Triticum aestivum; conditions: 5 days old control seedlings; 50-300 mM
Source text: Unlike Arabidopsis (Ericson et al. 2004a), spraying of 5 days old control and trans-genic seedlings with D-serine was not efficient in wheat. […] Watering of the plants was also not sufficient. Since the uptake, mobility in soil and detoxification by microorganisms are all potential barriers for D-serine in the soil, the expectation of in soil selection seems bleak. Therefore, that the transgenic plants will use the products from detoxification of D-serine as an additional nitrogen supply was not fulfilled in soil.

wheat immature embryos = test: Killing curve: in vitro germination of immature embryos and seedling growth; type: in vivo, Triticum aestivum
Description: In order to establish effective concentrations of D-serine and D-alanine on inhibiting growth of tissue cultured wheat cells, a bioassay system using immature embryos was applied. Immature embryos 2 mm in length were dissected onto germination medium with the selection agents, and incubated at 27° C. in light. The number of germinated embryos with well-developed shoots and brunched shoots were scored after 14 days.
Immature embryos 2 mm in size were isolated from the sterilized caryopses. The embryos were cultured on PAW-5 hormone free medium for germination in dark. Seedlings growth on D-amino acid selection was observed after 2 weeks. Most of the embryos germinated but the seedlings growth was inhibited when roots emerge and the uptake of the selection compound was direct from the medium. The Lethal Dose (LD 100) for seedlings germination and growth was 1 mM concentration of both D-amino acids tested (Table 6). Seedlings derived from embryos isolated from the immature caryopsis without endosperms were susceptible to the selection in concentration higher than 1 mM (FIG. 8).

[2] = tested on: non-transgenic wheat plants; test: D-serine as a nitrogen source in hydroponics; type: in vivo, Triticum aestivum
Description: T1 and T2 transgenic progenies were grown on hydroponics system where hydroponics solution (Gamborg and Wetter, 1975) was modified by replacing nitrogen with D-serine in five different concentrations (20, 30, 50 70 and 100 mM). Transgenic progenies and control seedlings were grown also on standard hydroponics solution as controls. The dry weigh of all 14 days old seedlings was measured.
Catabolic products of D-serine deaminase are ammonium and pyruvate—key compounds in plant metabolism. Theoretically, transgenic plants equipped with a functional dsdA gene are expected to utilize D-serine as a nitrogen source. We investigated this phenomenon in a hydroponic growth system by exchanging the nitrogen supply with D-serine. T2 progenies representing several independent transgenic events were subjected to two sets of hydroponic experiments.
The first hydroponics experiments were performed with plants from three independent transgenic lines 2256, 2258 and 2264 carrying the dsdA and ahas selectable marker genes and a range of D-serine concentrations (FIG. 15 I). […] Statistically significant differences between controls and transgenic plants on corresponding concentrations of D-serine were detected. Two of these transgenic lines were inhibited in all tested D-serine concentrations. […]

With `N[C@H](CO)C(=O)O` [D-serine] the “regeneration capacity of the calli measured as number of regenerants per callus line” value (wheat callus; 0.5 mM) was “clear increase”, the “number of calli regenerating plants reduced” value (wheat callus; 3 mM) was 50% and the “Regeneration capacity of the calli reduced” value (wheat callus; 5 mM) was 70%. For the same molecule, the “Regenerated Embryogenic Lines (%)” value (wheat callus; Bobwhite, 0.5 mM) was 83%, the “Regenerated Embryogenic Lines (%)” value (wheat callus; Bobwhite, 3 mM) was 57% and the “Regenerated Embryogenic Lines (%)” value (wheat callus; Bobwhite, 5 mM) was 32.5%. The “Regenerated Embryogenic Lines (%)” value (wheat callus; Bobwhite, 10 mM) was 10%, the “Regenerated Embryogenic Lines (%)” value (wheat callus; Bobwhite, 15 mM) was 6% and the “Regenerated Embryogenic Lines (%)” value (wheat callus; Bobwhite, 25 mM) was 0%. For the same molecule, the “Regenerated Embryogenic Lines (%)” value (wheat callus; Bobwhite, 50 mM) was 0%, the “Regenerated Embryogenic Lines (%)” value (wheat callus; Canon, 0.5 mM) was 84% and the “Regenerated Embryogenic Lines (%)” value (wheat callus; Canon, 3 mM) was 56%. The “Regenerated Embryogenic Lines (%)” value (wheat callus; Canon, 5 mM) was 23%, the “Regenerated Embryogenic Lines (%)” value (wheat callus; Canon, 10 mM) was 6% and the “Regenerated Embryogenic Lines (%)” value (wheat callus; Canon, 15 mM) was 3%. The “Regenerated Embryogenic Lines (%)” value (wheat callus; Canon, 25 mM) was 0%, the “Regenerated Embryogenic Lines (%)” value (wheat callus; Canon, 50 mM) was 0% and the “lethal dose (LD 100) for regeneration response of callus” value (wheat callus; tested in both varieties) was 25 mM. For the same molecule, the “toxicity symptoms after spraying” value [1] was “not sufficient to elicit toxicity symptoms”, the “In vitro germination, Immature Embryos (%)” value (“In vitro germination … (%)” for short) (wheat immature embryos; Bobwhite, 0.5 mM) was 46% and the “In vitro germination … (%)” value (wheat immature embryos; Bobwhite, 1 mM) was 0%. The “In vitro germination … (%)” value (wheat immature embryos; Bobwhite, 5 mM) was 0%, the “In vitro germination … (%)” value (wheat immature embryos; Bobwhite, 10 mM) was 0% and the “In vitro germination … (%)” value (wheat immature embryos; Canon, 0.5 mM) was 34%. The “In vitro germination … (%)” value (wheat immature embryos; Canon, 1 mM) was 0%, the “In vitro germination … (%)” value (wheat immature embryos; Canon, 5 mM) was 0% and the “In vitro germination … (%)” value (wheat immature embryos; Canon, 10 mM) was 0%. For the same molecule, the “growth of non-transgenic control plants in hydroponics” value ([2]; hydroponics solution supplemented with 30, 50 and 70 mM) was “not able to grow” and the “growth of non-transgenic plants in hydroponics” value ([2]; nitrogen replaced by D-serine, all tested concentrations (20, 30, 50, 70 and 100 mM)) was “fully inhibited”.
